The source of these data is paper PMC8333425, “Discovery of a dual Ras and ARF6 inhibitor from a GPCR endocytosis screen” (Nature Communications, 2021).

The structures appear in SMILES notation. “And” between values parts separate entries of the source, which are not always exact repeats. Equal entries are not always repeated.

Test [1] relates to ERK1/2 activation by EGFR. The test is described as follows: Western blot of EGFR-mediated ERK1/2 phosphorylation. The test is classed as cell-based, human. The note with it: for p-ERK1/2 over ERK1/2, normalized to basal (0 min), EGFR: Comp 21 50 μM; for p-ERK1/2 over ERK1/2, normalized to basal (0 min), EGFR / ERK 1/2 activation, EGFR (p-ERK1/2 over ERK1/2, fold over basal): individual experiments. As to the method: (§1) HEK293SL cells (10^5 cells per well) were seeded in a poly-L-lysine-coated six-well plate and transiently transfected with 3 μg Flag-AT1R, HA-B2R or HA-β2AR and/or 500 ng Flag-MEK1-WT, Flag-MEK1-DD, Flag-BRAF-WT, Flag-BRAF-V600E, Flag-K-Ras-WT, Flag-K-Ras-G12V, HA-ARF6-WT, or HA-ARF6-T27N. Gαq/11 KO and βarr1/2 KO cells were seeded onto 100 mm dishes at a density of 10^6 cells per dish. Next day, cells were transfected with 3 μg AT1R alone or along with 500 ng of β-arrestin2 using PEI. After 18 h of transfection, cells were detached and re-seeded onto poly-L-lysine coated 12-well plates (~1.5–2 × 10^5cells/well) for subsequent experiments. Forty-eight hours post transfection, in a 37 °C water bath, cells were serum-starved for 30 min, pretreated with DMSO (0.1%) or compound 21/Rasarfin (50 µM or at indicated concentrations) for 30 min, then stimulated or not with the indicated ligand [AngII (1 µM), BK (1 µM), Iso (10 µM) or EGF (100 ng/ml)] at indicated times. Cells were put on ice, washed with PBS and solubilized in 2x laemmli buffer (250 mM Tris–HCl pH 6.8, 2% SDS (w/v), 10% glycerol (v/v), 0.01% bromophenol blue (w/v) and 5% β-mercaptoethanol (v/v)) by heating at 65 °C for 15 min. Lysates were resolved on 10 or 14% SDS-PAGE, transferred to nitrocellulose membranes and immunoblotted for p-ERK1/2, ERK1/2, p-Akt, Akt, HA, Myc, β-actin or FLAG. ImageLab 5.2 software was used to quantify the digital blots as fold of the phosphorylated protein over total protein, which were then normalized as indicated in the figure legends. Uncropped immunoblots are provided in the Source Data file.
(In general: In western blotting, separated proteins are transferred to a membrane and probed.)

A further test concerns MEK1. The test is described as follows: Western blot of ERK1/2 phosphorylation induced by MEK1 (MEK1-WT / MEK1-DD). It is filed as cell-based, human. As to the method:
as §1

With `CC(C)C(=O)N1CCN(c2ccc(NC(=O)c3cc4ccccc4o3)cc2Cl)CC1` [Compound 21], the “MAPK response promoted by EGFR” value in test [1] (50 μM) was “blocked MAPK responses”. In addition, the “p-ERK1/2 over ERK1/2, normalized to basal (0 min), EGFR” value in test [1] (time 0 min) was 1; in test [1] (time 2 min) it was 0.3674 and 5.171 and 13.8891 and 0.7219; in test [1] (time 5 min) it was 0.3034 and 7.285 and 51.2032 and 0.6227. Besides, the IC50 in test [1] (Homo sapiens, read-out: IC50 for inhibition of ERK1/2 activation by EGFR) worked out at 4 µM. In addition, the “ERK 1/2 activation, EGFR (p-ERK1/2 over ERK1/2, fold over basal)” value is 3.411 percent compared to DMSO and 1.173 percent compared to DMSO in test [1] (Log [Comp 21] (M) -4.3); 5.269 percent compared to DMSO and 7.4638 percent compared to DMSO and 1.3341 percent compared to DMSO in test [1] (Log [Comp 21] (M) -5); 22.8883 percent compared to DMSO and 78.7892 percent compared to DMSO and 45.9513 percent compared to DMSO in test [1] (Log [Comp 21] (M) -5.3); 104.782 percent compared to DMSO and 74.7611 percent compared to DMSO in test [1] (Log [Comp 21] (M) -6); 80.4826 percent compared to DMSO and 84.8524 percent compared to DMSO in test [1] (Log [Comp 21] (M) -6.3); 108.069 percent compared to DMSO and 86.5762 percent compared to DMSO in test [1] (Log [Comp 21] (M) -7). In addition, the “ERK1/2 activation induced by overexpression of MEK1-DD” value in the test on MEK1 (50 μM) was “nor did it block ERK1/2 activation”. For the same compound, the “Predicted (LS) mean diff. DMSO vs. compound (Bonferroni's multiple comparisons test)” value with MEK1 (Flag-MEK1 DD) is reported as 0.4193; with MEK1 (Flag-MEK1 WT) it was 0.04596; in the test on MEK1 (mock) it was 0. In addition, the “ERK1/2 phosphorylation relative to mock (S_Fig.4c)” value with MEK1 (Flag-MEK1 DD, listed as Comp 21) was 4.057 and 4.133 and 4.072 and 3.9273; in the test on MEK1 (Flag-MEK1 WT, listed as Comp 21), 1.754 and 1.134 and 1.2368; in the test on MEK1 (mock), 1.
